# From patent US20080119445A1, “METHODS OF FEMALE SEXUAL ENHANCEMENT” (priority 2004, published 2008)
# Where a name gives a salt, the structure may show the parent alone.
# How the values were obtained:
# women [1] = test: unpublished clinical study of DHEA cream (transdermal) or pellets (subcutaneous) in women; assay type: in vivo, human
# Excerpt: A third embodiment of the present invention comprises a new use of a well-established steroid hormone. The invention includes both the topical application of the hormone in cream form and the subcutaneous implantation of the hormone in pellet form for the purpose of female sexual enhancement.
# The hormone is dehydroepiandrosterone (DHEA) and the carrying agent for its topical use is a proprietary compound, Q-base cream. Q-base cream is available to compound pharmacies all over the United States and consists of the following formulation: • purified water, cyclomethicone, octyl stearate, arlacel 165 (PEG-100 stearate/glyceryl stearate), sorbitol, green tea extract (organic), stearyl alcohol, cyclopentasiloxane and PEG/PPG-18/18 dimethicone, gingko extract (organic), ginseng extract (organic), tocotrienols, vitamin E acetate, wheat germ oil, edetate disodium, xanthan gum, vitamin A palmitate, coenzyme Q10, methylchloroisothiazolinone/methylisothiazolin one.
# Alternatively, the carrying agent for the DHEA may comprise H-base cream. The formula for H-base cream is as follows: • water, glycerin, canola oil, stearic acid, cetyl alcohol, PEG-100 stearate, glyceryl stearate, dimethicone, magnesium aluminum silicate, propylene glycol, triethanolamine, polysorbate 60, xanthan gum, bitter almond kernel oil, aloe vera, grape seed extract, wheat germ oil, vitamin E acetate, vitamin A palmitate, Vitamin C palmitate, tetrasodium EDTA, potassium sorbate, diazolidinyl urea. H base cream is a proprietary product produced by Professional Compounds Centers of America and licensed by it.
# The method of application of either the Q-base cream/DHEA mixture or the H-base cream/DHEA mixture in females is local application to the erectile tissue of the nipples and glans clitoris. The ratio of ingredients comprising the Q-base cream/DHEA mixture is between about 25 mg and about 50 mg of DHEA to about 1 cc of Q-base cream. The ratio of ingredients comprising the H-base cream/DHEA mixture is substantially the same. The resulting mixture is applied one time per day but not related to intercourse. Implantation of subcutaneous DHEA pellets is at the strength of about 25 mg of DHEA per pellet at intervals of between about 2 months and about 3 months. […] Normal levels are considered to be 50-100 picograms per milliliter.
# In an unpublished clinical study of the third embodiment of the invention over the past three years patient acceptance and satisfaction has been clear-cut and in excess of 95%. The response is dependent on the patient having normal blood levels of estradiol and testosterone as well. A normal level of DHEA is about 50 to about 100 picograms per milliliter. A normal level of estradiol is about 50 to about 100 picograms per milliliter and a normal level of testosterone is about 200 to about 540 picograms per milliliter. Normal ranges for all these levels can vary from laboratory to laboratory.
# women [2] = details: headaches, facial flushing, nasal congestion, indigestion, bluish tinge to vision, blindness; cited from earlier work
# women [3] = details: widely used for years; cited from earlier work
# women [4] = test: administration of vardenafil hydrochloride or tadalafil to women prior to sexual activity; assay type: in vivo, human
# Procedure: More particularly, the initial step in the process comprising the first embodiment of the invention comprises identifying a woman desiring sexual enhancement. […] Thereafter, the woman's blood is tested to determine the levels of estradiol and testosterone. If the woman's blood contains an estradiol level within a first predetermined range and a testosterone level within a second predetermined range, the process of the present invention continues. If not, the woman is treated utilizing conventional techniques to bring the level of estradiol in her blood to within the first predetermined range and/or to bring the level of testosterone in her blood to within the second predetermined range. […]
# After the required levels of estradiol and testosterone in the woman's blood have either been confirmed or established, a drug selected from the group consisting of vardenafil hydrochloride and tadalafil is administered to the woman prior to sexual activity. […] It has been determined that the selected drug should be administered at least 15-20 minutes prior to the beginning of sexual activity. The optimum time interval between administration of the selected drug and the beginning of sexual activity may vary depending on the particular circumstances and is best determined by the woman through experimentation. […]
# women [5] = details: normal estradiol and testosterone levels not established before the drug was used; cited from earlier work
structure (smiles),measurement,setting,value
"C[C@]12CC[C@H](O)CC1=CC[C@@H]1[C@@H]2CC[C@]2(C)C(=O)CC[C@@H]12 [DHEA, dehydroepiandrosterone]","blood levels, cream versus subcutaneous pellets",women [1]; cream once per day versus about 25 mg pellet every 2 to 3 months,Identical blood levels are achieved with both methods of application
same,patient acceptance and satisfaction,"women [1]; third embodiment, over the past three years, normal blood levels of estradiol and testosterone",> 95%
same,female sexual pleasure and satisfaction including sexual arousal and achievement of orgasm,"women [1]; transdermal or subcutaneous, women with normal estradiol and testosterone",enhanced
same,"blood level above which excess androgen complications occur (male pattern hair loss, excess facial hair growth, acne)",women [1]; women,exceed 100 picograms per milliliter
same,safety profile of administration,women [1]; women,extraordinary
"CCCc1nn(C)c2c(=O)[nH]c(-c3cc(S(=O)(=O)N4CCN(C)CC4)ccc3OCC)nc12 [VIAGRA, sildenafil citrate]",side effects observed in women using the drug for sexual enhancement,women [2],unacceptable side effects
CN1CC(=O)N2[C@H](c3ccc4c(c3)OCO4)c3[nH]c4ccccc4c3C[C@@H]2C1=O [tadalafil],safety profile,women [3],remarkable safety profiles
CCCc1nc(C)c2c(=O)[nH]c(-c3cc(S(=O)(=O)N4CCN(CC)CC4)ccc3OCC)nn12 [vardenafil hydrochloride],enhancement of sexual arousal and sexual satisfaction in females,women [4]; drug given prior to sexual activity,significant enhancement
same,efficacy in women compared with men,"women [4]; experiences over the past 2 years, lower dosage, used correctly (normal estradiol and testosterone)",even more effective (lower dosage) in women than in men
same,efficacy in women,women [5],ineffective in women
same,safety profile,women [3],remarkable safety profiles
